Like-named read-outs stand apart in the source and are kept apart here.
Assays:
[1] = tested on: Mycosphaerella graminicola; Anamorph: Septoria tritici; Bayer Code SEPTTR; assay: Leaf blotch of wheat, foliar fungicide treatment, one day protectant (1DP) or three day curative (3DC); type: in vivo, Septoria tritici on wheat plants (variety Yuma); details: Zymoseptoria tritici; for pest or weed control at 50 ppm / pest or weed control at 200 ppm: % disease control rating
[2] = tested on: Cercospora beticola; Bayer Code CERCBE; assay: Leaf spot of sugar beets; type: in vivo, Cercospora beticola on sugar beets (variety HH-88); details: 24 h, % disease control rating, one day protectant; for pest or weed control at 25 ppm: read-out: CERCBE 1 DP 25 ppm; for pest or weed control at 75 ppm: read-out: CERCBE 1 DP 75 ppm
[3] = tested on: Venturia inaequalis; Bayer Code VENTIN; assay: Apple scab; type: in vivo; details: 24 h, % disease control rating, one day protectant; for pest or weed control at 25 ppm: read-out: VENTIN 1 DP 25 ppm; for pest or weed control at 75 ppm: read-out: VENTIN 1 DP 75 ppm
[4] = 24 h, one day protectant (1DP), rating of percent disease control, read-out: SETTTR 1DP 25 ppm
[5] = 24 h, one day protectant (1DP), rating of percent disease control, read-out: SEPTTR 1DP 100 ppm
[6] = 72 h, three day curative (3DC), rating of percent disease control, read-out: SEPTTR 3DC 25 ppm
[7] = 72 h, three day curative (3DC), rating of percent disease control, read-out: SEPTTR 3DC 100 ppm
[8] = 24 h, one day protectant, rating of percent disease control, read-out: SETTTR 1DP 25 ppm
[9] = 24 h, one day protectant, rating of percent disease control, read-out: SEPTTR 1DP 100 ppm
[10] = 72 h, three day curative, rating of percent disease control, read-out: SEPTTR 3DC 25 ppm
[11] = 72 h, three day curative, rating of percent disease control, read-out: SEPTTR 3DC 100 ppm
[12] = 24 h, one day protectant (1DP), percent disease control rating, read-out: SETTTR 1DP 25 ppm
[13] = 24 h, one day protectant (1DP), percent disease control rating, read-out: SEPTTR 1DP 100 ppm
[14] = 72 h, three day curative (3DC), percent disease control rating, read-out: SEPTTR 3DC 25 ppm
[15] = 72 h, three day curative (3DC), percent disease control rating, read-out: SEPTTR 3DC 100 ppm

## Fc1cnc(OCc2ccccc2)nc1NNc1ccccn1 [Compound 373]
[1]; [4]
  pest or weed control at 25 ppm: 0 to 25%
[1]; [5]
  pest or weed control at 100 ppm: 0 to 25%
[1]; [6]
  pest or weed control at 25 ppm: 26 to 50%
[1]; [7]
  pest or weed control at 100 ppm: 51 to 75%
[2]
  pest or weed control at 25 ppm: 0 to 25%
  pest or weed control at 75 ppm: 0 to 25%
[3]
  pest or weed control at 25 ppm: 0 to 25%
  pest or weed control at 75 ppm: 26 to 50%

## Fc1cnc(OCc2cccs2)nc1NCc1ccc2c(c1)OCO2 [Compound 804]
[1]; 24 h, one day protectant
  pest or weed control at 50 ppm: 26 to 50%
  pest or weed control at 200 ppm: 51 to 75%
[2]
  pest or weed control at 25 ppm: 0 to 25%
  pest or weed control at 75 ppm: 0 to 25%
[3]
  pest or weed control at 25 ppm: 0 to 25%
  pest or weed control at 75 ppm: 0 to 25%

## C=CCc1cc(COc2ncc(F)c(N)n2)cc(OC)c1OC [Compound 569]
[1]; [8]
  pest or weed control at 25 ppm: 76 to 100%
[1]; [9]
  pest or weed control at 100 ppm: 76 to 100%
[1]; [10]
  pest or weed control at 25 ppm: 51 to 75%
[1]; [11]
  pest or weed control at 100 ppm: 76 to 100%
[2]
  pest or weed control at 25 ppm: 26 to 50%
  pest or weed control at 75 ppm: 76 to 100%
[3]
  pest or weed control at 25 ppm: 76 to 100%
  pest or weed control at 75 ppm: 76 to 100%

## Nc1nc(OCc2ccc(OCC(F)(F)F)nc2)ncc1F [Compound 79]
[1]; [12]
  pest or weed control at 25 ppm: 76 to 100%
[1]; [13]
  pest or weed control at 100 ppm: 76 to 100%
[1]; [14]
  pest or weed control at 25 ppm: 76 to 100%
[1]; [15]
  pest or weed control at 100 ppm: 76 to 100%
[2]
  pest or weed control at 25 ppm: 0 to 25%
  pest or weed control at 75 ppm: 26 to 50%
[3]
  pest or weed control at 25 ppm: 26 to 50%
  pest or weed control at 75 ppm: 26 to 50%

## CN(C)/C=N/c1nc(OCCNc2ccccc2)ncc1F [Compound 248]
[1]; [4]
  pest or weed control at 25 ppm: 0 to 25%
[1]; [5]
  pest or weed control at 100 ppm: 76 to 100%
[1]; [6]
  pest or weed control at 25 ppm: 76 to 100%
[1]; [7]
  pest or weed control at 100 ppm: 76 to 100%
[2]
  pest or weed control at 25 ppm: 0 to 25%
  pest or weed control at 75 ppm: 0 to 25%
[3]
  pest or weed control at 25 ppm: 0 to 25%
  pest or weed control at 75 ppm: 51 to 75%

## O=C(Nc1nc(OCc2cccc(F)c2)ncc1F)c1ccccc1 [Compound 158]
[1]; [12]
  pest or weed control at 25 ppm: 76 to 100%
[1]; [13]
  pest or weed control at 100 ppm: 76 to 100%
[1]; [14]
  pest or weed control at 25 ppm: 76 to 100%
[1]; [15]
  pest or weed control at 100 ppm: 76 to 100%
[2]
  pest or weed control at 25 ppm: 0 to 25%
  pest or weed control at 75 ppm: 0 to 25%
[3]
  pest or weed control at 25 ppm: 51 to 75%
  pest or weed control at 75 ppm: 51 to 75%

## Fc1cnc(OCc2cccs2)nc1N1CCOCC1 [Compound 845]
[1]; 24 h, one day protectant
  pest or weed control at 50 ppm: 76 to 100%
  pest or weed control at 200 ppm: 76 to 100%
[2]
  pest or weed control at 25 ppm: 0 to 25%
  pest or weed control at 75 ppm: 0 to 25%
[3]
  pest or weed control at 25 ppm: 26 to 50%
  pest or weed control at 75 ppm: 26 to 50%

## Cc1c(COc2ncc(F)c(N)n2)cnn1C [Compound 800]
[1]; [4]
  pest or weed control at 25 ppm: 76 to 100%
[1]; [5]
  pest or weed control at 100 ppm: 76 to 100%
[1]; [6]
  pest or weed control at 25 ppm: 76 to 100%
[1]; [7]
  pest or weed control at 100 ppm: 76 to 100%
[2]
  pest or weed control at 25 ppm: 76 to 100%
  pest or weed control at 75 ppm: 76 to 100%
[3]
  pest or weed control at 25 ppm: 76 to 100%
  pest or weed control at 75 ppm: 76 to 100%

## CC(Oc1ncc(F)c(N)n1)c1ccc(C(F)(F)F)nc1 (centres unmarked) [Compound 356]
[1]; [4]
  pest or weed control at 25 ppm: 26 to 50%
[1]; [5]
  pest or weed control at 100 ppm: 51 to 75%
[1]; [6]
  pest or weed control at 25 ppm: 26 to 50%
[1]; [7]
  pest or weed control at 100 ppm: 51 to 75%
[2]
  pest or weed control at 25 ppm: 51 to 75%
  pest or weed control at 75 ppm: 0 to 25%
[3]
  pest or weed control at 25 ppm: 51 to 75%
  pest or weed control at 75 ppm: 26 to 50%

## CS(=O)(=O)Oc1ncc(F)c(N)n1 [Compound 337]
[1]; [4]
  pest or weed control at 25 ppm: 26 to 50%
[1]; [5]
  pest or weed control at 100 ppm: 76 to 100%
[1]; [6]
  pest or weed control at 25 ppm: 26 to 50%
[1]; [7]
  pest or weed control at 100 ppm: 26 to 50%
[2]
  pest or weed control at 25 ppm: 51 to 75%
  pest or weed control at 75 ppm: 76 to 100%
[3]
  pest or weed control at 25 ppm: 51 to 75%
  pest or weed control at 75 ppm: 76 to 100%

## Fc1cnc(OCc2ccccc2)nc1/N=C/N1CCOCC1 [Compound 626]
[1]; [8]
  pest or weed control at 25 ppm: 76 to 100%
[1]; [9]
  pest or weed control at 100 ppm: 76 to 100%
[1]; [10]
  pest or weed control at 25 ppm: 76 to 100%
[1]; [11]
  pest or weed control at 100 ppm: 76 to 100%
[2]
  pest or weed control at 25 ppm: 0 to 25%
  pest or weed control at 75 ppm: 0 to 25%
[3]
  pest or weed control at 25 ppm: 26 to 50%
  pest or weed control at 75 ppm: 76 to 100%

## CCOCNc1nc(OCc2cccs2)ncc1F [Compound 343]
[1]; [4]
  pest or weed control at 25 ppm: 26 to 50%
[1]; [5]
  pest or weed control at 100 ppm: 76 to 100%
[1]; [6]
  pest or weed control at 25 ppm: 76 to 100%
[1]; [7]
  pest or weed control at 100 ppm: 76 to 100%
[2]
  pest or weed control at 25 ppm: 76 to 100%
  pest or weed control at 75 ppm: 76 to 100%
[3]
  pest or weed control at 25 ppm: 76 to 100%
  pest or weed control at 75 ppm: 51 to 75%

— patent US9204653B2, “5-fluoro pyrimidine derivatives” (DOW AGROSCIENCES LLC, priority 2008, dated 2015)
